The values that follow come from patent US10874743B2, “IRAK degraders and uses thereof” (Kymera Therapeutics, Inc., priority 2017, dated 2020).

For the experiment, the target named is T1, IRAK4 (Homo sapiens, UniProt Q9NWZ3).
T1 sequence (Q9NWZ3 1-460): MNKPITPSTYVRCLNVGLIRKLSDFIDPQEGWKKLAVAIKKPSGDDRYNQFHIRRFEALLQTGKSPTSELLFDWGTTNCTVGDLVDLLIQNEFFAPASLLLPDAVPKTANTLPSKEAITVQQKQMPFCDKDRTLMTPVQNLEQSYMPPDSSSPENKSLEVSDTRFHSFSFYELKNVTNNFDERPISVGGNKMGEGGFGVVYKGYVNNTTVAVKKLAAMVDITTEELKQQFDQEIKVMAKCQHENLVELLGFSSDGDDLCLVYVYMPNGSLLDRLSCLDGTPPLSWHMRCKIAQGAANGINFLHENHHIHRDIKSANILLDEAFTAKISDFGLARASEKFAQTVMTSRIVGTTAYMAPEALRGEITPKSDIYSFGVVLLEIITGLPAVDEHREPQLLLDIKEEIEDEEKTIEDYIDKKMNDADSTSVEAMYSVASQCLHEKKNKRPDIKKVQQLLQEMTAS
The experiment in a line: THP-1 degradation assay (western blot, % IRAK4 degraded after 24 hours). It counts as cell-based. Also noted: endogenous in cells. The note with it: THP-1 cells. The protocol: Compounds were reconstituted in DMSO to make stock solutions at concentration of 60 mM. THP-1 and OCI-LY10 cells were maintained in RPMI-1640 medium containing 10% FBS, 0.5 μM 2-ME or 20% FBS, 55 μM 2-ME, and 1% L-Glutamine respectively.
Cells were seeded into 6-well plates with 5e6 cells per well. 200 μL of diluted compounds were added to cells to the final concentration of 0.003-10 μM. After 4 or 24 hour-incubation at 37° C., cells were collected into 2 mL Eppendorf tubes and centrifuged at 1,000 rpm for 5 min. The cell pellets were washed with 1×DPBS once and resuspended in 60 μL lysis buffer. The cells were lysed on ice for 10 min, then centrifuged at 14,000 rpm for 10 min at 4° C. and the supernatants were collected for western blots. For THP-1 cells, the lysis buffer contained 40 mM pH 7.4 HEPES, 140 mM NaCl, 2.5 mM EDTA, 1% NP-40, 0.1% SDS, and protease inhibitor cocktail (Roche, Cat. No. 05892791001). For OCI-LY10 cells, RIPAbuffer (Thermo Fisher, 89900) with Halt Protease and Phosphatase Inhibitor Cocktail (Thermo Fisher, 78446) was applied.
The protein concentration of cell lysates was quantified with Pierce™ BCA Protein Assay Kit (Pierce, 23227). Albumin standards at different concentrations were prepared, involving 2,000 ug/mL, 1,500 ug/mL, 1,000 ug/mL, 750 ug/mL, 500 ug/mL, 250 ug/mL, 125 ug/mL, and 25 ug/mL. BCA working reagents were prepared by mixing BCA reagent A with reagent B in 50:1 ratio. 200 μL of the BCA working reagents were added to 25 μL of BCA standard or cell lysates in microplate, and mixed thoroughly on a plate shaker for 30 seconds. After incubation at 37° C. for 30 min, the absorbance of samples at 562 nm were measured with EnVision Plate Reader.
Protein lysates were prepared in NuPAGE™ LDS sample buffer and NuPAGE™ sample reducing agent, and incubated at 95° C. for 5 min. For western blots, 20-25 μg of total proteins were resolved in 4-12% Bis-Tris gels (Introgen, WG1403A) or 10% Bis-Tris Midi gels (Invitrogen, WG1202BOX) running with 1×MOPS SDS running buffer (Invitrogen, NP0001) or 1×MES SDS running buffer (Invitrogen, NP0002). The proteins were transferred to low fluorescence PVDF membranes using the Trans-Blot Turbo Transfer System. Membranes were then blocked in Odyssey blocking buffer at RT for 1 h followed by primary incubation at 4° C. overnight. The primary antibodies were IRAK1 rabbit monoclonal antibody (CST, #4504S, 1:500), IRAK3 rabbit polyclonal antibody (CST, #4369, 1:500), IRAK4 rabbit polyclonal antibody (CST, #4363S, 1:1,000), MyD88 rabbit monoclonal antibody (Abcam, Ab133739, 1:2,000), j3-actin mouse monoclonal antibody (Sigma, A5441, 10,000), and Gapdh mouse monoclonal antibody (Millipore, MAB374, 1:5,000). Membranes were washed three times with 1×TBST, and then incubated with IR Dye 800 CW Goat anti-rabbit (Licor, #926-32211) and IR Dye 700 CW Goat anti-mouse (Licor, #926-68070) secondary antibodies in 1:10,000 dilution at RT for 1 h. The western blot images were obtained using Odyssey Imaging System.
THP-1 results at 24 hours. The letter codes indicate the percentage of IRAK4 degraded after 24 hours: A (>50% degradation), B (>20-50% degradation) and C (<20% degradation)
For orientation: A western blot detects proteins with antibodies after separation by electrophoresis.
`O=C1CCC(N2C(=O)c3cccc(NCCOCCOCCOCCOCCOCC(F)CNC(=O)c4cnc(Nc5ccc6cnccc6n5)cc4NC4CC4)c3C2=O)C(=O)N1` (centres unmarked) [I-48]: the “THP-1 24 h % IRAK4 Degradation” value is recorded as “B (>20-50% degradation)”.

In the case of `O=C1CCC(N2C(=O)c3cccc(NCCOCCOCCOCC(F)CNC(=O)c4cnc(Nc5ccc6cnccc6n5)cc4NC4CC4)c3C2=O)C(=O)N1` (centres unmarked) [I-49], the “THP-1 24 h % IRAK4 Degradation” value is “B (>20-50% degradation)”.

Take `Cc1ncsc1-c1ccc(CNC(=O)C2C[C@@H](O)CN2C(=O)[C@@H](NC(=O)COCCOCCOC(C)C(F)CNC(=O)c2cnc(-n3ncc4cc(C#N)cnc43)cc2NC2CC2)C(C)(C)C)cc1` (some centres unmarked) [I-122]: the “THP-1 24 h % IRAK4 Degradation” value is “C (<20% degradation)”.

For the molecule `O=C(COc1cccc2c1C(=O)N(C1CCC(=O)NC1=O)C2=O)NCCCCCOCCOCCOCCCCCNC(=O)[C@H]1CC[C@H](NC(=O)c2cnc(Nc3ccc4cnccc4n3)cc2NC2CC2)CC1` (stereo partly drawn) [I-1, 6-((1,6-naphthyridin-2-yl)amino)-4-(cyclopropylamino)-N-((1R,4R)-4-((1-((2-(2,6-dioxopiperidin-3-yl)-1,3-dioxoisoindolin-4-yl)oxy)-2-oxo-9,12,15-trioxa-3-azaicosan-20-yl)carbamoyl)cyclohexyl)nicotinamide], the “THP-1 24 h % IRAK4 Degradation” value was “B (>20-50% degradation)”.

On to `Cc1ncsc1-c1ccc(CNC(=O)[C@@H]2C[C@@H](O)CN2C(=O)[C@H](NC(=O)CCCCCCCCCCCNC(=O)[C@H]2CC[C@H](NC(=O)c3cnc(Nc4ccc5cnccc5n4)cc3NC3CC3)CC2)C(C)(C)C)cc1` [I-12], for which the “THP-1 24 h % IRAK4 Degradation” value is on record as “C (<20% degradation)”.

In the case of `COc1cc(Nc2nc(N[C@H]3CCCC[C@H]3N)n3ccnc3c2C(N)=O)cc(OCCOCCOCCOCCOCCOCC(=O)N[C@H](C(=O)N2C[C@H](O)C[C@H]2C(=O)NCc2ccc(-c3scnc3C)cc2)C(C)(C)C)c1` [I-163], the “THP-1 24 h % IRAK4 Degradation” value is “C (<20% degradation)”.

Turning to `O=C1CCC(N2C(=O)c3cccc(NCCOCCOCCOCCOCCNC(=O)[C@H]4CC[C@H](NC(=O)c5cnc(Nc6ccc7cnccc7n6)cc5NC5CC5)CC4)c3C2=O)C(=O)N1` (some centres unmarked) [I-11], the “THP-1 24 h % IRAK4 Degradation” value was “C (<20% degradation)”.

Regarding `CC(C)(OCC(=O)NCCOCCOCCNc1cccc2c1C(=O)N(C1CCC(=O)NC1=O)C2=O)C(F)CNC(=O)c1cnc(Nc2ccc3cnccc3n2)cc1NC1CC1` (centres unmarked) [I-55], the “THP-1 24 h % IRAK4 Degradation” value is “C (<20% degradation)”.

Consider `O=C1CCC(N2C(=O)c3cccc(NCCOCCOCCOCCOCCN4CCN(CCOCC(F)CNC(=O)c5cnc(Nc6ccc7cnccc7n6)cc5NC5CC5)CC4)c3C2=O)C(=O)N1` (centres unmarked) [I-47], for which the “THP-1 24 h % IRAK4 Degradation” value was “B (>20-50% degradation)”.

As to `O=C1CCC(N2C(=O)c3cccc(NCCOCCOCCOCCOCCOCCOCC(F)CNC(=O)c4cnc(Nc5ccc6cnccc6n5)cc4NC4CC4)c3C2=O)C(=O)N1` (centres unmarked) [I-51], the “THP-1 24 h % IRAK4 Degradation” value is recorded as “C (<20% degradation)”.

As for `Cc1ncsc1-c1ccc(CNC(=O)[C@@H]2C[C@@H](O)CN2C(=O)[C@H](NC(=O)CCCCCCNC(=O)[C@H]2CC[C@H](NC(=O)c3cnc(Nc4ccc5cnccc5n4)cc3NC3CC3)CC2)C(C)(C)C)cc1` [I-10, 6-((1,6-naphthyridin-2-yl)amino)-4-(cyclopropylamino)-N-((1S,4r)-4-((7-(((S)-1-((2S,4R)-4-hydroxy-2-((4-(4-methylthiazol-5-yl)benzyl)carbamoyl)-pyrrolidin-1-yl)-3,3-dimethyl-1-oxobutan-2-yl)amino)-7-oxoheptyl)carbamoyl)cyclohexyl)-nicotinamide], the “THP-1 24 h % IRAK4 Degradation” value was “C (<20% degradation)”.

Regarding `O=C(CN1CCC(NC(=O)c2cnc(Nc3ccc4cnccc4n3)cc2NC2CC2)CC1)NCCOCCOCCNc1cccc2c1C(=O)N(C1CCC(=O)NC1=O)C2=O` (centres unmarked) [I-19, 6-((1,6-naphthyridin-2-yl)amino)-4-(cyclopropylamino)-N-(1-(2-((2-(2-(2-((2-(2,6-dioxopiperidin-3-yl)-1,3-dioxoisoindolin-4-yl)amino)ethoxy)ethoxy)ethyl)amino)-2-oxoethyl)piperidin-4-yl)nicotinamide], the “THP-1 24 h % IRAK4 Degradation” value is listed as “C (<20% degradation)”.

Take `O=C(COc1cccc2c1C(=O)N(C1CCC(=O)NC1=O)C2=O)NCCCCCNC(=O)[C@H]1CC[C@H](NC(=O)c2cnc(Nc3ccc4cnccc4n3)cc2NC2CC2)CC1` (some centres unmarked) [I-4]: the “THP-1 24 h % IRAK4 Degradation” value is “A (>50% degradation)”.

For the molecule `NC(=O)c1nnc(N[C@@H]2CCCC[C@@H]2N)nc1Nc1cccc2c1ccn2CCOCCOCCOCCOCCNc1cccc2c1C(=O)N(C1CCC(=O)NC1=O)C2=O` (stereo partly drawn) [I-194, 3-[[(1R,2S)-2-aminocyclohexyl]amino]-5-[[1-[2-[2-[2-[2-[2-[[2-(2,6-dioxo-3-piperidyl)-1,3-dioxo-isoindolin-4-yl]amino]ethoxy]ethoxy]ethoxy]ethoxy]ethyl]indol-4-yl]amino]-1,2,4-triazine-6-carboxamide], the “THP-1 24 h % IRAK4 Degradation” value is “C (<20% degradation)”.

For the molecule `O=C(COc1cccc2c1C(=O)N(C1CCC(=O)NC1=O)C2=O)NCCOCCOCCOCCOCCOCC(F)CNC(=O)c1cnc(Nc2ccc3cnccc3n2)cc1NC1CC1` (centres unmarked) [I-97], the “THP-1 24 h % IRAK4 Degradation” value is reported as “B (>20-50% degradation)”.

Turning to `O=C(COc1cccc2c1C(=O)N(C1CCC(=O)NC1=O)C2=O)NCCOCCOCCOCCOCC(F)CNC(=O)c1cnc(Nc2ccc3cnccc3n2)cc1NC1CC1` (centres unmarked) [I-98], the “THP-1 24 h % IRAK4 Degradation” value is on record as “B (>20-50% degradation)”.

Regarding `O=C(COc1cccc2c1C(=O)N(C1CCC(=O)NC1=O)C2=O)NCCCOCCCOCC(F)CNC(=O)c1cnc(Nc2ccc3cnccc3n2)cc1NC1CC1` (centres unmarked) [I-100], the “THP-1 24 h % IRAK4 Degradation” value was “B (>20-50% degradation)”.

For `COc1cc2c(cc1OCCOCCOCCOCCOCCOCC(=O)N[C@H](C(=O)N1C[C@H](O)C[C@H]1C(=O)NCc1ccc(-c3scnc3C)cc1)C(C)(C)C)ncc1c3ccc(C#N)cc3[nH]c21` [I-203], the “THP-1 24 h % IRAK4 Degradation” value is listed as “B (>20-50% degradation)”.

Take `O=C(COc1cccc2c1C(=O)N(C1CCC(=O)NC1=O)C2=O)NCCOCCOCCNC(=O)[C@H]1C[C@H](NC(=O)c2cnc(Nc3ccc4cnccc4n3)cc2NC2CC2)C1` (some centres unmarked) [I-16]: the “THP-1 24 h % IRAK4 Degradation” value was “C (<20% degradation)”.

`Cc1ncsc1-c1ccc(CNC(=O)[C@@H]2C[C@@H](O)CN2C(=O)[C@@H](NC(=O)COCCOCCOCCOCCOCCOCC(F)CNC(=O)c2cnc(Nc3ccc4cnccc4n3)cc2NC2CC2)C(C)(C)C)cc1` (some centres unmarked) [I-119]: the “THP-1 24 h % IRAK4 Degradation” value is on record as “B (>20-50% degradation)”.

`N#Cc1cnc(Nc2cc(NC3CC3)c(C(=O)NCC(F)COCCOCCOCCNc3cccc4c3C(=O)N(C3CCC(=O)NC3=O)C4=O)cn2)c(F)c1` (centres unmarked) [I-58]: the “THP-1 24 h % IRAK4 Degradation” value was “C (<20% degradation)”.

Take `Cc1ncsc1-c1ccc(CNC(=O)[C@@H]2C[C@@H](O)CN2C(=O)C(NC(=O)COCCOCCOCCOCCNC(=O)[C@H]2CC[C@H](NC(=O)c3cnc(Nc4ccc5cnccc5n4)cc3NC3CC3)CC2)C(C)(C)C)cc1` (some centres unmarked) [I-13]: the “THP-1 24 h % IRAK4 Degradation” value is listed as “C (<20% degradation)”.

For the molecule `O=C(COc1cccc2c1C(=O)N(C1CCC(=O)NC1=O)C2=O)NCCOCCOCCOCCNC(=O)[C@H]1CC[C@H](NC(=O)c2cnc(Nc3ccc4cnccc4n3)cc2NC2CC2)CC1` (some centres unmarked) [I-2], the “THP-1 24 h % IRAK4 Degradation” value was “C (<20% degradation)”.
